The text below walks through data of patent US20040023884A1, “Biologically active peptides from functional domains of bactericidal/permeability-increasing protein and uses thereof” (priority 1993, published 2004).

≈ marks a conversion by molar mass, not a printed value. Square brackets hold non-standard residues; d marks the D form. Ends that are not written are not given here. Peptide text beside a SMILES is read from it. Phe(4-NH2) = Nc1ccc(C[C@H](N)C(=O)O)cc1; 1Nal = N[C@@H](Cc1cccc2ccccc12)C(=O)O; Cha = N[C@@H](CC1CCCCC1)C(=O)O

The test system of test [1] is E. coli 0111:B4 (smooth) bacteria. Kind of test: Radial diffusion bactericidal assay, E. coli 0111:B4. It counts as cell-based. The settings on record: radial diffusion; PROBIT analysis; E. coli O111:B4 (smooth).
Test [2] relates to rough mutant E. coli J5 bacteria. Kind of test: Radial diffusion bactericidal assay, E. coli J5. It counts as cell-based. Particulars: radial diffusion; PROBIT analysis; E. coli J5 (rough). The method, boiled down: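 Log-phase bacteria, washed in 10 mM sodium phosphate pH 7.4, were seeded at 4×10^6 CFU/mL in underlayer agarose. BPI fragments (5 or 10 μL) went into 3 mm wells for 3 h at 37° C., then overlayer agarose was added. After overnight 37° C. incubation, clearing zones were measured by micrometer.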

Test [3] relates to C. albicans. Kind of test: Radial diffusion fungicidal assay, Candida albicans. It counts as cell-based. The settings on record: for C. albicans: pmol required for 30 mm^2 zone: radial diffusion.
In test [4] the test system is Staphylococcus aureus. The test can be described thus: Radial diffusion bactericidal assay, Staphylococcus aureus. It counts as cell-based. Particulars: radial diffusion; PROBIT analysis; S. aureus.
Test [5] has as its system Candida albicans. It counts as cell-based.
A short description of test [6]: 3H-heparin binding assay (affinity and capacity). The settings on record: for Heparin Capacity: heparin bound at saturation; for Kd: read-out: Heparin Affinity. The method, boiled down:
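Bound 3H-heparin was counted by liquid scintillation after 1 h incubation at 4 °C with fragments immobilised on PVDF-bottomed wells, then washing in blocking buffer. Signal was corrected for BSA-related background, and varying amounts of rBPI23 were used as positive control.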

With `CC[C@H](C)[C@H](NC(=O)[C@H](CC(C)C)NC(=O)[C@H](Cc1ccc(N)cc1)NC(=O)CNC(=O)[C@@H](NC(=O)[C@H](CCCCN)NC(=O)[C@H](CO)NC(=O)[C@@H](N)CCCCN)C(C)C)C(=O)N[C@@H](CCC(N)=O)C(=O)N[C@@H](CC(C)C)C(=O)N[C@@H](Cc1ccccc1)C(=O)N[C@@H](Cc1c[nH]cn1)C(=O)N[C@@H](CCCCN)C(=O)N[C@@H](CCCCN)C(=O)O` [BPI.133] (H-KSKVG[Phe(4-NH2)]LIQLFHKK-OH; N-terminus and C-terminus assumed), the “pmol added to well to achieve a 30 mm^2 bactericidal zone, E. coli O111:B4” value (shortened to “pmol added to well … E. coli O111:B4”) in test [1] was “b (no detectable activity up to 5 μg/well)”. The “pmol added to well to achieve a 30 mm^2 bactericidal zone, E. coli J5” value (shortened to “pmol added to well … E. coli J5”) in test [2] is recorded as 2,316.59 pmol. The “C. albicans: pmol required for 30 mm^2 zone” value (from here on “C. albicans: pmol required”) in test [3] is on record as 284.39 pmol. Besides, the “pmol added to well to achieve a 30 mm^2 bactericidal zone, S. aureus” value (shortened to “pmol added to well … S. aureus”) in test [4] was “b (no detectable activity up to 5 μg/well)”. Further, the “MIC C. alb” value in test [5] was 12.50 mg/L (≈ 7.4 µM).
As to `CC[C@H](C)[C@H](NC(=O)[C@H](CC(C)C)NC(=O)[C@H](Cc1c[nH]c2ccccc12)NC(=O)[C@H](Cc1ccc(N)cc1)NC(=O)[C@@H](NC(=O)[C@H](CCCCN)NC(=O)[C@H](CO)NC(=O)[C@@H](N)CCCCN)C(C)C)C(=O)N[C@@H](CCC(N)=O)C(=O)N[C@@H](CC(C)C)C(=O)N[C@@H](Cc1ccccc1)C(=O)N[C@@H](Cc1c[nH]cn1)C(=O)N[C@@H](CCCCN)C(=O)N[C@@H](CCCCN)C(=O)O` [BPI.134] (H-KSKV[Phe(4-NH2)]WLIQLFHKK-OH; N-terminus and C-terminus assumed), the “pmol added to well … E. coli O111:B4” value in test [1] is on record as 580.11 pmol. In addition, the “pmol added to well … E. coli J5” value in test [2] was found to be 162.50 pmol. For the same compound, in test [3], the “C. albicans: pmol required” value was 1254.98 pmol. For the same compound, in test [4], the “pmol added to well … S. aureus” value is given as “b (no detectable activity up to 5 μg/well)”. In addition, the “MIC C. alb” value in test [5] came to 12.50 mg/L (≈ 6.88 µM).
As to `CC[C@H](C)[C@H](NC(=O)[C@H](CC(C)C)NC(=O)[C@H](Cc1c[nH]c2ccccc12)NC(=O)CNC(=O)[C@@H](NC(=O)[C@H](CCCCN)NC(=O)[C@H](CO)NC(=O)[C@@H](N)CCCCN)C(C)C)C(=O)N[C@@H](CCC(N)=O)C(=O)N[C@@H](Cc1cccc2ccccc12)C(=O)N[C@@H](Cc1ccccc1)C(=O)N[C@@H](Cc1c[nH]cn1)C(=O)N[C@@H](CCCCN)C(=O)N[C@@H](CCCCN)C(=O)O` [BPI.143] (H-KSKVGWLIQ[1Nal]FHKK-OH; N-terminus and C-terminus assumed), the “pmol added to well … E. coli O111:B4” value in test [1] was “b (no detectable activity up to 5 μg/well)”. Further, the “pmol added to well … E. coli J5” value in test [2] is listed as 12,388.45 pmol. Further, in test [3], the “C. albicans: pmol required” value is reported as over 2838.99 pmol. In addition, the “pmol added to well … S. aureus” value in test [4] is on record as “b (no detectable activity up to 5 μg/well)”. The “MIC C. alb” value in test [5] is 25.00 mg/L (≈ 13.9 µM).
Consider `CC[C@H](C)[C@H](NC(=O)[C@H](CC(C)C)NC(=O)[C@H](CC1CCCCC1)NC(=O)CNC(=O)[C@@H](NC(=O)[C@H](CCCCN)NC(=O)[C@H](CO)NC(=O)[C@@H](N)CCCCN)C(C)C)C(=O)N[C@@H](CCC(N)=O)C(=O)N[C@@H](CC(C)C)C(=O)N[C@@H](Cc1ccccc1)C(=O)N[C@@H](Cc1c[nH]cn1)C(=O)N[C@@H](CCCCN)C(=O)N[C@@H](CCCCN)C(=O)O` [BPI.144] (H-KSKVG[Cha]LIQLFHKK-OH; N-terminus and C-terminus assumed), for which the “pmol added to well … E. coli O111:B4” value in test [1] is given as “b (no detectable activity up to 5 μg/well)”. Further, the “pmol added to well … E. coli J5” value in test [2] amounted to 510.02 pmol. Moreover, the “C. albicans: pmol required” value in test [3] amounted to 695.19 pmol. Moreover, in test [4], the “pmol added to well … S. aureus” value is “b (no detectable activity up to 5 μg/well)”. Further, the “MIC C. alb” value in test [5] amounted to 12.50 mg/L (≈ 7.44 µM).
On to KSKVGVLIQLFHKK [BPI.166], for which the “pmol added to well … E. coli O111:B4” value in test [1] was 9,586.00 pmol. Moreover, the “pmol added to well … E. coli J5” value in test [2] is given as 514.00 pmol. Also, the “C. albicans: pmol required” value in test [3] worked out at 170.65 pmol. Also, the “pmol added to well … S. aureus” value in test [4] is listed as “b (no detectable activity up to 5 μg/well)”. The “MIC C. alb” value in test [5] is 3.13 mg/L.
Turning to KSKVGWLIALFHKK [BPI.39], the “pmol added to well … E. coli O111:B4” value in test [1] is listed as “b (no detectable activity up to 5 μg/well)”. Moreover, in test [6], the “Heparin Capacity” value is recorded as 335.6 ng and the Kd was determined as 0.757 µM. In addition, in test [2], the “pmol added to well … E. coli J5” value turned out to be 316.20 pmol. The “C. albicans: pmol required” value in test [3] is reported as 1791.81 pmol. For the same compound, in test [3] (vs BPI.13), the “fold decrease in the radial diffusion assay test (fungicidal activity)” value is on record as “greater than 8 fold”. The “MIC C. alb” value in test [5] was determined as 12.50 mg/L.
As for KSKVGWLIKLFHKK [BPI.92], in test [1], the “pmol added to well … E. coli O111:B4” value is “b (no detectable activity up to 5 μg/well)”. In test [6], the “Heparin Capacity” value came out at 227.3 ng and the Kd was 0.667 µM. For the same compound, the “pmol added to well … E. coli J5” value in test [2] came out at 331.80 pmol. In addition, the “C. albicans: pmol required” value in test [3] was 298.72 pmol. Besides, the “pmol added to well … S. aureus” value in test [4] is listed as “b (no detectable activity up to 5 μg/well)”. Also, in test [5], the “MIC C. alb” value worked out at 3.13 mg/L.
KSKVGWLIQWFHKK [BPI.142]: the “pmol added to well … E. coli O111:B4” value in test [1] is “b (no detectable activity up to 5 μg/well)”. Moreover, the “pmol added to well … E. coli J5” value in test [2] turned out to be 922.21 pmol. Also, the “C. albicans: pmol required” value in test [3] is recorded as 1243.79 pmol. The “pmol added to well … S. aureus” value in test [4] is given as “b (no detectable activity up to 5 μg/well)”. Further, the “MIC C. alb” value in test [5] was found to be 12.50 mg/L.
Take KSKVGYLIQLFHKK [BPI.139]: the “pmol added to well … E. coli O111:B4” value in test [1] is given as 3,793.91 pmol. The “pmol added to well … E. coli J5” value in test [2] was 1,261.37 pmol. In addition, in test [3], the “C. albicans: pmol required” value came to 322.96 pmol. For the same compound, in test [4], the “pmol added to well … S. aureus” value is reported as “b (no detectable activity up to 5 μg/well)”. In test [5], the “MIC C. alb” value is 6.25 mg/L.
For KSKVKFLIQLFHKK [BPI.138], in test [1], the “pmol added to well … E. coli O111:B4” value is given as 995.40 pmol. In addition, the “pmol added to well … E. coli J5” value in test [2] was 64.57 pmol. Moreover, the “C. albicans: pmol required” value in test [3] was 256.82 pmol. Besides, in test [4], the “pmol added to well … S. aureus” value is “b (no detectable activity up to 5 μg/well)”. In test [5], the “MIC C. alb” value came out at 3.13 mg/L.
For the compound KSKVLWLIQLFHKK [BPI.85], the “pmol added to well … E. coli O111:B4” value in test [1] is 295,208.43 pmol. Besides, in test [6], the “Heparin Capacity” value stood at 233.1 ng and the Kd was 0.682 µM. In test [2], the “pmol added to well … E. coli J5” value is given as 227.35 pmol. Further, the “C. albicans: pmol required” value in test [3] was over 1881.18 pmol. In addition, the “pmol added to well … S. aureus” value in test [4] is listed as 14,677.13 pmol.
With KWKVFKKIEKKSKVGWLIQLFHKK [BPI.149], the “pmol added to well … E. coli O111:B4” value in test [1] is recorded as 391.00 pmol. Further, in test [2], the “pmol added to well … E. coli J5” value is recorded as 44.00 pmol. Further, the “C. albicans: pmol required” value in test [3] was over 1397.76 pmol. In addition, in test [4], the “pmol added to well … S. aureus” value is recorded as “b (no detectable activity up to 5 μg/well)”. In addition, in test [5], the “MIC C. alb” value stood at 12.50 mg/L.
